Measurements taken from patent US20100331363A1, “TREATMENT OF MITOCHONDRIAL DISORDERS USING A FARNESYL TRANSFERASE INHIBITOR” (Link Medicine Corporation, priority 2008, published 2010).
Entries after “also recorded” stand apart in the source; their conditions may differ.

What was measured:
[1] = tested on: 3T3H-ras (61 L) xenograft tumor; Ras farnesylation; conditions: continuous infusion, 7 day treatment, cited from earlier work
[2] = tested on: human α-synuclein; assay: Masliah D-line α-synuclein transgenic mouse, α-synuclein immunoreactivity and ELISA; format: in vivo
Description: Animals and treatments: Male and female human WT alpha-synuclein over-expressing transgenic mice^32 at 6 months of age were given vehicle (10% beta-cyclodextrin) or LNK-754-TS (0.09, 0.9 and 9 mg/kg) per oral gavage twice daily for 3 months or animals at 7 months of age were given vehicle (2.5% beta-cyclodextrin) or LNK-754-TS (2 mg/kg) once every three days for 3 months. Male and female TAU transgenic mice expressing TAU441 bearing the missense mutations V337M^50 and R406W under the control of the murine Thy-1 promoter with a CB6xC57BL/6 background were 5 months old at the time when the oral treatment for three months with LNK-754-TS (0.9 and 0.09 mg/kg) as well as vehicle (2.5% beta-cyclodextrin) was started. Female human APP/PS1 (APP (London V7171)/PS1(A246E)) over-expressing transgenic mice were treated with LNK-754-TS (0.9 mg/kg) or vehicle (2.5% beta-cyclodextrin) for 2 months or 12 days.
(§1) Immunohistochemistry and quantification of stained cells: For evaluation of α-synuclein immunoreactivity (IR), 5 sagittal cryo-cut sections (10 μm slice thickness) from five different layers were used for counting of IR cells in the cortex and hippocampus. Brain sections were stained with a monoclonal human α-synuclein specific antibody (Alexis®; Cat#804-258-L001; dilution 1:5), followed by a secondary Ab Cy 2-Goat Anti-Rat (Jackson ImmunoResearch®; dilution 1:200). IR positive cells were quantified using specialized image analysis software (Image Pro Plus, version 4.5.1.29). For Tau transgenic animals, 5 μm thick coronal paraffin sections were stained with the monoclonal mouse anti-human TAU-antibodies (AT180—1:100; HT7—1:500) and visualized using an anti-mouse Cy3 secondary antibody (1:500, Jackson Laboratories®). Images were evaluated with ImageProPlus (version 6.2) image analysis software. For APP/PS1 transgenic animals sagittal hemisections (40 μm) were collected and processed for Aβ immunohistochemistry using an 6E10 antibody, Thioflavin-S staining. Primary antibodies were detected by the ABC method.
(§2) ELISA quantification of α-Synuclein in the α-Synuclein transgenic animals: Brain homogenate was centrifuged and the supernatant saved as fraction F1. The pellet was washed then resuspended and saved as fraction F2. Plates (Nunc, 464718) were coated with SYN-1 (1:1000, BD Transduction Labs, 610787). Monomeric recombinant α-synuclein was included as an internal standard. Biotinylated antibody FL-140 (1:300, Santa Cruz Biotechnology, sc-10717-B) and ExtrAvidin-Alkaline phosphatase (3:5000, Sigma, E2636) was added followed by pNPP substrate solution (Sigma, N1891). Raw absorbance (405 nm) was then normalized to the total protein concentration of each sample. In the APP/PS1 transgenic animal, brains were homogenized and the supernatant, Faction 1, was separated from the pellet. The pellets were further processed with addition of NP40 and Triton X-100. The supernatant was separated from the pellet as the insoluble membrane, Fraction 2, and was dissolved in 8M Guanidine. To quantify the amount of human Aβ-40 and Aβ-42, ELISA kits were used (The Genetics Company, Zurich, Switzerland).
In FIG. 2 is shown efficacy data for LNK-754-TS in the Masliah D-line transgenic α-synuclein mouse (an accepted model of synucleinopathies). Two trials are shown, the first (FIG. 2A) at higher doses of LNK-754-TS: 45 mg/kg and 9 mg/kg. […] The second trial (FIG. 2B) explores the low dose range for efficacy in the α-synuclein models. Here, doses start as low as 0.9 mg/kg, and extend through 9 mg/kg, all below the efficacious dose range in the mouse oncology model.
After dosing with LNK-754-TS for three months (twice daily at 0.09 mg/kg or 0.9 mg/kg), α-synuclein accumulation in the brain was analyzed by immunohistochemical (human specific α-synuclein immunoreactivity) and biochemical (α-synuclein ELISA) means. […]

[3] = tested on: Ras; assay: Inhibition of Ras farnesylation in SH-SY5Y cells; format: cell-based, human; conditions: continuous exposure over long periods, average
[4] = 3T3H-ras (61 L) xenograft tumor-bearing athymic mouse, continuous infusion 7 days, PK/PD; format: in vivo; conditions: intravenous, calculated from minimal continuous serum level of 100 ng/ml, read-out: minimal efficacious AUC
From the text: FIG. 3 provides pharmacokinetic and pharmacodynamic data for continuously infused LNK-754 (CP-609,754) in a 3T3H-ras (61 L) xenograft tumor-bearing athymic mouse (7 day treatment). […] From Pfizer Investigational New Drug Application for CP-609,754, Section 8, Pharmacology and Toxicology, dated Nov. 19, 1999. See also Moulder et al., Clinical Cancer Research 10:7127-7135, Nov. 1, 2004.
Further data supporting the stark difference in dosing levels for efficacy in oncology and synucleinopathies is shown in FIG. 3 and Table 2A below. In the experiment shown in FIG. 3, a xenograft model is once again used, but there is continuous infusion of LNK-754-TS, and thus a steady state concentration of drug in the plasma and tissues.
In the experimental data represented in Table 2A, a different method of drug delivery is used (oral) than in the experiment represented in FIG. 3. The best way to compare the relative coverage of the two delivery methods (oral and continuous infusion) is by comparing area-under-the-curve (AUC) values. We can compare the calculated AUC values for the continuous infusion oncology study presented in FIG. 3 and the AUC values associated with the synuclein model doses in the table. […] The AUCs of orally dosed LNK-754-TS at 0.9 mg/kg and at 0.09 mg/kg QD are 34.6 and […], respectively.

[5] = tested on: Aβ; assay: Aβ immunohistochemistry, Thioflavin-S and Aβ40/Aβ42 ELISA in APP/PS1 transgenic mice; format: in vivo, mouse
From the text: as §1, §2
Mice were treated with LNK-754-TS for two months, tested for performance in the Morris water maze (MWM), and then sacrificed for immunohistochemical (Aβimmunoreactivity) and biochemical (ELISA measurement of Aβ40 and Aβ42) analysis.

[6] = 9 mg/kg PO BID 3 months, first trial (FIG. 2A)
[7] = 45 mg/kg PO BID 3 months (FIG. 2A)
[8] = α-synuclein transgenic mice vs vehicle
[9] = 0.09 or 0.9 mg/kg twice daily, three months
[10] = 0.9 mg/kg once every 24 hr, two months

C#Cc1cccc(-c2cc(=O)n(C)c3ccc([C@](O)(c4ccc(Cl)cc4)c4cncn4C)cc23)c1 [LNK-754, (R)-6-[(4-chlorophenyl)-hydroxyl-(1-methyl-1-H-imidazol-5-yl)-methyl]-4-(3-ethynylphenyl)-1-methyl-2-(1H)-quinonlinone]
inhibition of Ras farnesylation at which significant inhibition of tumor growth was seen ([1]; tumor tissue): at least 50%
continuous serum level at which significant inhibition of tumor growth was seen [1]: above 100 ng/mL
number of α-synuclein positive neurons ([2]; 0.9 mg/kg, second trial (FIG. 2B)): significantly lowered
number of α-synuclein positive neurons [2, 6]: found to significantly lower
number of α-synuclein positive neurons [2, 7]: did not significantly lower; also recorded: not found to significantly lower
levels of α-synuclein in the hippocampus [2, 8]: decrease levels of α-synuclein
α-synuclein inclusions [2, 8]: fewer α-synuclein inclusions

C#Cc1cccc(-c2cc(=O)n(C)c3ccc([C@](O)(c4ccc(Cl)cc4)c4cncn4C)cc23)c1 [LNK-754-TS, (R)-6-[(4-chlorophenyl)-hydroxyl-(1-methyl-1-H-imidazol-5-yl)-methyl]-4-(3-ethynylphenyl)-1-methyl-2-(1H)-quinonlinone (2S, 3S)-dihydroxybutanedioate]
α-synuclein accumulation in brain (immunoreactivity and ELISA) ([2]; 0.09 mg/kg or 0.9 mg/kg twice daily, three months, cortex and hippocampus): clearly reduced; also recorded: halts deposition
cortical α-synuclein immunoreactivity ([2]; 2 mg/kg once every 72 hours, three months, vs baseline and vehicle): significantly lower than at the outset of treatment; also recorded: significantly reduces
number of α-synuclein positive neurons [2, 6]: significant reduction
number of α-synuclein IR cells in hippocampus ([2]; 9 mg/kg PO BID 3 months, second lower dose trial (FIG. 2B)): significance level was not reached
number of α-synuclein positive neurons [2, 7]: not significantly effective
astrocytosis (GFAP staining) [2, 9]: GFAP staining was unchanged
drug-dependent toxicity [2, 9]: None of the treated animals showed any evidence
neuronal loss (NeuN staining and brain volume) [2, 9]: no evidence of neuronal loss
synaptic damage (synaptophysin staining) [2, 9]: synaptophysin staining was unchanged
reduction of α-synuclein immunoreactivity, hippocampal slices ([2]; three-month dosing trial (FIG. 9c)): ca. 50%
IC50 [3]: 1 nM
AUC [4]: ~2400 ng·h/mL
Thioflavin-S staining in the subiculum [5, 10]: no statistically significant changes
levels of Aβ40/Aβ42 from whole brain fractions, ELISA [5, 10]: no statistically significant changes
number of Aβ (6E10) immunoreactive plaques in the subiculum ([5]; 0.9 mg/kg once every 24 hr, two months, vs vehicle): lesser, but still significant, effect; also recorded: significant decrease
Aβ40 or Aβ42 levels, Aβ immunoreactivity or Thio-S staining ([5]; 0.9 mg/kg, 12 days): no significant reduction
